{"source": "patent US20240344014A1", "about": "“3D SHELL MICR[…] FOR EL[…] ORGANOIDS” (The Johns Hopkins University, priority 2023, published 2024)", "test_system": "brain organoids", "experiment": "3D shell MEA recording of brain organoid electrical activity with glutamate stimulation", "format": "cell-based, human", "details": "brain organoid in 3D shell MEA", "source_text": "A 9-week brain organoid was placed at the center of the shell electrodes during self-folding, which allowed the organoid to be enveloped within the leaflets with the PEDOT: PSS electrodes in intimate contact with the organoid (FIG. 10B). A glass cylinder was placed around the device to hold the cell media. Electrode outputs were fabricated for signal acquisition (FIG. 10A). The three PEDOT: PSS electrodes on the leaflets successfully recorded the field potential of the enveloped brain organoid (FIG. 10C, FIG. 11). […] The overlaid spike waveform indicates an average spike duration of ˜2 ms, with varied amplitude during the recording (FIG. 10E). We note that we can add more electrodes to the leaflets to improve the recording (FIGS. 12A-12F, FIGS. 13A-13D).\nWe further confirm that the signal recorded is from the brain organoids by examining the response to 20 μM glutamate neurotransmitter added to the culture media that served as a positive control for the spontaneous recording (23, 37). […]\nAfter preprocessing the raw signals, we detected spikes separate for each channel using a threshold-based method, where the threshold is automatically set to be 5σn. […] After spike locations were detected, we isolated them by windows of length 3.5 ms. […]", "data": [{"smiles": "N[C@@H](CCC(=O)O)C(=O)O", "note": "[glutamate]", "values": [{"measurement": "spike signal-to-noise ratio (SNR), increase of median (amplitude of firing spikes)", "setting": "20 μM glutamate added to the culture media, before vs after application", "value": 57.6, "unit": "%"}, {"measurement": "inter-spike-interval (ISI) of glutamate-induced signals", "setting": "20 μM glutamate, before vs after stimulation", "value": "longer"}]}]}
